Reference: patent US20240366589A1, “NHE3-BINDING COMPOUNDS AND METHODS FOR INHIBITING PHOSPHATE TRANSPORT” (Ardelyx, Inc., priority 2013, published 2024)
Blank lines part the entries; values can stand above or below the compound they belong to.

Tests used:
[1] = system: absorption of sodium from the intestinal lumen; assay: Inhibition of intestinal sodium absorption: urinary sodium (uNa) 16 h after single oral dose in rats; format: in vivo, rat; conditions: for UNa (%): urinary Na excretion as % of vehicle
In short: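 Urinary sodium mass over the 16 h after one oral gavage dose, measured by cation-exchange ion chromatography, reported as percent of water-vehicle group; ANOVA plus Dunnett's post hoc test. Groups of six 8-week-old Sprague-Dawley rats, housed individually in metabolic cages post-dose, fed and watered freely.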

[2] = biological target: T1, Rat NHE3 (Rattus norvegicus, UniProt P26433); assay: Cell-based NHE3 activity under prompt conditions (OK cells, BCECF pH recovery), rat NHE3; conditions: for Rat NHE3 pIC50 Prompt: Table E5, 001 free base, 002-005 dihydrochloride salt
T1 construct: expressed in transfected cells; host or cells: Opossum kidney (OK) cells (ATCC), electroporation
T1 sequence (P26433 29-831): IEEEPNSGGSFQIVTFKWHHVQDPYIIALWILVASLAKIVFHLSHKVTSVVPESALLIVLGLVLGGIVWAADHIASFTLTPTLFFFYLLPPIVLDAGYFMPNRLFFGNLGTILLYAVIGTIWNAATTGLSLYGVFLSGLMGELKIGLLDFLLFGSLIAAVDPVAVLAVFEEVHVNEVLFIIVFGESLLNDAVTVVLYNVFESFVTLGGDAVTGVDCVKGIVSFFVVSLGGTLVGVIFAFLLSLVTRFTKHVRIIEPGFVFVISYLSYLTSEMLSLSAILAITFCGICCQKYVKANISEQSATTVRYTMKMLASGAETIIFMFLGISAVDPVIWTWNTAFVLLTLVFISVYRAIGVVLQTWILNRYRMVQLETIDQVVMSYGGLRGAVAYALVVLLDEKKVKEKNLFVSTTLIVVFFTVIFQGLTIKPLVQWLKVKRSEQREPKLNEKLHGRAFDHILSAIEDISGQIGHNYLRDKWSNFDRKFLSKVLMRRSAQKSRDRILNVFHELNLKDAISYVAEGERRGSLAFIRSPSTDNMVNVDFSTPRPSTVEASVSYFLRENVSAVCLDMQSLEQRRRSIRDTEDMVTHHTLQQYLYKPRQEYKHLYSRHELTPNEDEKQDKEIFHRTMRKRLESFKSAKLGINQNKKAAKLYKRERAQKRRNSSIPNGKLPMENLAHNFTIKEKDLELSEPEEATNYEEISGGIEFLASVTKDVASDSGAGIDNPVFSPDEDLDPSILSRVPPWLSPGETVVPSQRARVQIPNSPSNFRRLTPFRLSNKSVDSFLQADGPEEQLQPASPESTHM
In short: (§1)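 Fluorometric NHE3 antiport assay in opossum kidney cells carrying rat or human NHE3, using BCECF pH recovery after NH4Cl-prepulse acid loading. pIC50 values derive from initial rates averaged across at least two replicates.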

[3] = system: intestinal phosphate uptake; assay: Pharmacodynamic study with 33P oral challenge in normal function rats; format: in vivo, rat; conditions: 10 mg/kg; for Pi uptake after 33P oral challenge: 8 mM Pi with 33P, dihydrochloride salts, FIG. 1A
Procedure: The compounds identified as Cpds 003, 004, and 005 (from Table E4, as their dihydrochloride salts) were tested for the ability to block intestinal phosphate uptake in rats. Rats were orally challenged with dosing solutions composed of 5 ml/kg (˜1.3 ml) of 8 mM Pi with ^33P and +/−10 mg/kg of test compound. Also included were dosing solutions further composed of either (i) 75 mM glucose+4 mM Ca or (ii) 4 mM Ca.

[4] = biological target: T2, Human NHE3 (Homo sapiens, UniProt P48764); assay: Cell-based NHE3 activity under prompt conditions (OK cells, BCECF pH recovery), human NHE3; conditions: for pIC50 Prompt: Table E6, NHE3 species not stated
T2 construct: expressed in transfected cells; host or cells: Opossum kidney (OK) cells (ATCC), electroporation
T2 sequence (P48764 26-834): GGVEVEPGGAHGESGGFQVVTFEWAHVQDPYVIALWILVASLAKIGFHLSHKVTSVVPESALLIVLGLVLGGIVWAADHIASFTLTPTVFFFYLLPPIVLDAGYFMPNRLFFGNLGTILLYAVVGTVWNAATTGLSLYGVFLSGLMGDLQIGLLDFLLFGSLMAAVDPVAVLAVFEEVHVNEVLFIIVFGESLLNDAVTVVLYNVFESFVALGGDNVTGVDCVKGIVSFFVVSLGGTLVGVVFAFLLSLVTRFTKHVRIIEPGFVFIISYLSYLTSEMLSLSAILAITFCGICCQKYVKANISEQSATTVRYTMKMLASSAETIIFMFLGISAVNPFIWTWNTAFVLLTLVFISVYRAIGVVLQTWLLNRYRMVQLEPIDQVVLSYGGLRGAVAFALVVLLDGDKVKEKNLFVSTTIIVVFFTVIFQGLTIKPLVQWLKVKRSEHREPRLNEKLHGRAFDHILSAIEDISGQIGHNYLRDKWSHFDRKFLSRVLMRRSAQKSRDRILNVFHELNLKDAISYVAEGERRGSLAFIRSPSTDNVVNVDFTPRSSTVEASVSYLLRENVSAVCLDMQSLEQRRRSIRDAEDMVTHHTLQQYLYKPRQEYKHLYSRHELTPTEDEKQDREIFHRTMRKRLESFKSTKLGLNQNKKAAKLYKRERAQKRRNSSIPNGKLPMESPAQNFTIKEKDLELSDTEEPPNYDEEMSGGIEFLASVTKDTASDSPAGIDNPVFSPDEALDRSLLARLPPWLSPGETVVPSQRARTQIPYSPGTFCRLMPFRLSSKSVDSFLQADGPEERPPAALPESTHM
In short: as §1

[5] = biological target: NHE-1 (Homo sapiens, UniProt P19634); assay: NHE isoform inhibition, Table 2 adapted from Masereel et al.: NHE-1, species not marked; format: biochemical; conditions: from Table 2 values
Chain of NHE-1 (P19634 whole entry, species assumed, canonical isoform): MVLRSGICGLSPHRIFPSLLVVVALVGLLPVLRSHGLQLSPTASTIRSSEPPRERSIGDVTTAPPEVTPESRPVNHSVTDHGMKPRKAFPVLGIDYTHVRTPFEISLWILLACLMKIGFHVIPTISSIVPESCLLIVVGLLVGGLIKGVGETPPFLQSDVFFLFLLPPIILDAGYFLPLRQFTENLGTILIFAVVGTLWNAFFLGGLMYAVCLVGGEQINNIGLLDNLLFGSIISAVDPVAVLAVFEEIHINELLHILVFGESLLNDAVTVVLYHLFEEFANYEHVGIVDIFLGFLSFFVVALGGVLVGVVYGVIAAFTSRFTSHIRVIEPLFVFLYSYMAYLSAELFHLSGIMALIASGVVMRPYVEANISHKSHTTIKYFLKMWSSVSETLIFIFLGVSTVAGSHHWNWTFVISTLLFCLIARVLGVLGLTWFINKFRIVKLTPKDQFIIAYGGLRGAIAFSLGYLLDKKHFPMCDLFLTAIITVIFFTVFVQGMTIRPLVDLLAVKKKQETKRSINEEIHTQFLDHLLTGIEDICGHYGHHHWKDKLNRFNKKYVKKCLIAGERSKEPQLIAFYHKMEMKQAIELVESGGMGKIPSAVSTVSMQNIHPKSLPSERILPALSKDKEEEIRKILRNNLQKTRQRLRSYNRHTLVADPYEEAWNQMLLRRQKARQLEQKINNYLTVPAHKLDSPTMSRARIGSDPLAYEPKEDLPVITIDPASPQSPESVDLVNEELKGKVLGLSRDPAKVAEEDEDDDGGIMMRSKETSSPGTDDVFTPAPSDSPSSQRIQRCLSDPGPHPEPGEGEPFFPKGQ
Source text: Shown below are examples of various NHE binding small molecules and their selectivity across the NHE-1, -2 and -3 isoforms. (See, e.g., B. Masereel et al., An Overview of Inhibitors of Na+/H+ Exchanger, European J. of Med. Chem., 38, pp. 547-554 (2003), the entire contents of which is incorporated by reference here for all relevant and consistent purposes). […] It is thus possible to engineer NHE3 binding selectivity into a chemical series optimized for potency against another antiporter isoform; that is, the inhibitor classes exemplified in the art may be suitably modified for activity and selectivity against NHE3 (or alternatively NHE-2 and/or NHE-8), as well as being optionally modified to be rendered substantially impermeable or substantially systemically non-bioavailable.

[6] = system: absorption of sodium from the intestinal lumen; assay: Fecal form score (FFS) 16 h after oral dose in rats; format: in vivo, rat
In short: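 Fecal form was scored at 16 h post-dose on a 1–5 wetness scale (normal pellet to liquid stream), with two independent observations averaged across six rats per group. Animals were 8-week-old Sprague-Dawley rats given test compound or water orally in the late afternoon and kept in metabolic cages.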

[7] = biological target: T2, Human NHE3; assay: Cell-based NHE3 activity under persistent conditions (60 min incubation, washout), human NHE3; conditions: Table E5; dihydrochloride salt
[8] = biological target: T3, NHE-2 (Rattus norvegicus, UniProt P48763); conditions: * = from rat; read-out: IC50 or Ki NHE-2; cited from earlier work
T3 sequence (P48763 1-813): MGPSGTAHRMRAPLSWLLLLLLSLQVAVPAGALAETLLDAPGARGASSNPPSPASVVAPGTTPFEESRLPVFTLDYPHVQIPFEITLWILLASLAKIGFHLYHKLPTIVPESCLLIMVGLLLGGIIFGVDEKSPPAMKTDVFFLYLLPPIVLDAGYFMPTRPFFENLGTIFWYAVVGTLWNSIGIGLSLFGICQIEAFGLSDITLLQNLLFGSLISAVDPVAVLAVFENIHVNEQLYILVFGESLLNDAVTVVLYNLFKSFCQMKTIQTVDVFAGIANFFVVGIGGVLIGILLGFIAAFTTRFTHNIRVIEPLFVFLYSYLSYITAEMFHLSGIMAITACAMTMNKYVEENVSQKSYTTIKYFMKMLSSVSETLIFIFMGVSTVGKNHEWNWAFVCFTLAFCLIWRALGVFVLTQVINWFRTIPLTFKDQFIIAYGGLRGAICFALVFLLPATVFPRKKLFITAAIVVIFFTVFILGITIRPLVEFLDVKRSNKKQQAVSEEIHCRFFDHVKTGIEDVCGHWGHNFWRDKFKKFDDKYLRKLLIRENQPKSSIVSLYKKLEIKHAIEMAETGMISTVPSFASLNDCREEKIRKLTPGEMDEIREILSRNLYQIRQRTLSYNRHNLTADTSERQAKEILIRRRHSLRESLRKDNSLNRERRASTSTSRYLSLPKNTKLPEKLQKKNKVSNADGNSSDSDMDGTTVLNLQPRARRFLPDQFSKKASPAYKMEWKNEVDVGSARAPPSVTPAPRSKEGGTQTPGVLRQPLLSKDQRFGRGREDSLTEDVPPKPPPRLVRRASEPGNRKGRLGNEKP

[9] = system: phosphorus and calcium levels in the urine of rats; assay: Urinary excretion of phosphate and calcium in rats (16 h overnight urine); format: in vivo, rat; conditions: rats, oral gavage, dose 3 mg/kg, 16 h post-dose

Structure (SMILES): CN1Cc2c(Cl)cc(Cl)cc2[C@@H](c2cccc(S(=O)(=O)NCCOCCOCCNC(=O)NCCCCNC(=O)NCCOCCOCCNS(=O)(=O)c3cccc([C@@H]4CN(C)Cc5c(Cl)cc(Cl)cc54)c3)c2)C1 [Cpd 005]
UNa (%) ([1]; single oral dose 10 mg/kg): 90 @ 10 mg/kg %
Rat NHE3 pIC50 Prompt [2]: <5.0
Pi uptake after 33P oral challenge [3]: inactive
IC50 ([4]; Table E5, 001 free base, 002-005 dihydrochloride salt, read-out: Human NHE3 pIC50 Prompt (converted)): > 10 µM
pIC50 Prompt [4]: <5.0

Structure (SMILES): CN1Cc2c(Cl)cc(Cl)cc2[C@H](c2cccc(S(=O)(=O)NCCOCCOCCNC(=O)Nc3ccc(NC(=O)NCCOCCOCCNS(=O)(=O)c4cccc([C@@H]5CN(C)Cc6c(Cl)cc(Cl)cc65)c4)cc3)c2)C1 [Cpd 003]
effect on urinary Na (UNa) ([1]; in words): significant reduction in UNa
UNa (%) ([1]; single oral dose 1 mg/kg): 22 @ 1 mg/kg %
effect on fecal form ([6]; in words): change in fecal form
Human NHE3 pIC50 Persistent [7]: 8.1
Rat NHE3 pIC50 Prompt [2]: 8.6
Pi uptake after 33P oral challenge [3]: reducing Pi uptake
Pi uptake after 33P oral challenge in the presence of Ca ([3]; 4 mM Ca, FIG. 1C): significantly reduced Pi uptake
Pi uptake after 33P oral challenge in the presence of glucose/Ca ([3]; 75 mM glucose + 4 mM Ca, FIG. 1B): significantly reduced Pi uptake
Human NHE3 pIC50 Prompt ([4]; Table E5, 001 free base, 002-005 dihydrochloride salt): 8
pIC50 Prompt [4]: 8

Structure (SMILES): CCN(c1nc(N)c(C(=O)NC(=N)N)nc1Cl)C(C)C [EIPA, ethyl isopropyl amiloride]
IC50 [8]: 0.08 µM

Structure (SMILES): CN1CCN(C(=O)NC(CCC(=O)NCCOCCOCCNS(=O)(=O)c2cccc(C3CN(C)Cc4c(Cl)cc(Cl)cc43)c2)(CCC(=O)NCCOCCOCCNS(=O)(=O)c2cccc([C@@H]3CN(C)Cc4c(Cl)cc(Cl)cc43)c2)CCC(=O)NCCOCCOCCNS(=O)(=O)c2cccc([C@@H]3CN(C)Cc4c(Cl)cc(Cl)cc43)c2)CC1 (stereo in doubt) [compound 153]
Urine P % of control [9]: 84%
Urine Na % of control ([1]; oral gavage, dose 3 mg/kg, 16 h post-dose): 28%
Fecal Form Score average ([6]; oral gavage, dose 3 mg/kg, 16 h post-dose, scale 1-5): 3
Prompt Rat NHE3 pIC50 ([2]; prompt conditions): 6.90
Prompt Human NHE3 pIC50 ([4]; prompt conditions): 7.50

The remaining lines, values ahead:

selectivity: more active against NHE-1 than NHE3 [5]: over 500 fold
Structure (SMILES): C/C(=C\c1cccc(/C=C(\C)C(=O)NC(=N)N)c1)C(=O)N=C(N)N [S-2120]

selectivity: more active against NHE-1 than NHE3 [5]: selectivity is reversed
Structure (SMILES): C/C(=C\c1cc(C)ccc1/C=C(\C)C(=O)NC(=N)N)C(=O)N=C(N)N [S-3226]
